Measured values from patent publication US20140024662A1, “COMPOUNDS, SCREENS, AND METHODS OF TREATMENT” (Shanghai Institute of Organic Chemistry, priority 2006, published 2014).
Entries after “also recorded” stand apart in the source; their conditions may differ. Where two headings read alike, the source gives them in different places.

Test system: FADD-deficient Jurkat cells
Test: necroptosis assay: FADD-deficient Jurkat cells treated with TNFα, cell viability
Assay type: cell-based, human
Conditions: for activity in the necroptosis assay, in words / Max Prot: FADD-deficient Jurkat cells treated with TNFα; for Max Prot: max viability obtained in the presence of a compound; call rule not given here
Description: Herein we describe the structure activity analysis of Nec-5 analogs.

[1] = effective concentration for half-maximum response, inhibition of necroptosis in FADD-deficient Jurkat cells treated with TNFα, read-out: EC50
[2] = effective concentration for half-maximum response, inhibition of necroptosis in FADD-deficient Jurkat cells treated with TNFα

| SMILES | activity in the necroptosis assay, in words | Max Prot [%] | EC50 [1] [µM] | EC50 [2] | further results |
| --- | --- | --- | --- | --- | --- |
| COc1ccc(-n2c(SCC#N)nc3sc4c(c3c2=O)CCCC4)cc1 [Compound 1, 3-p-methoxyphenyl-5,6-tetra-methylenothieno-[2,3-d]-pyrimidin-4-one-2-mercaptoethylcyanide] | prevents the death | 100 | – | – | EC50 (Homo sapiens, Jurkat): 0.24 µM |
| COc1ccc(-n2c(SC)nc3sc4c(c3c2=O)CCCC4)cc1 [Compound 6] | reserves its activity to a significant extent | 71 | 0.24 | – | – |
| CCSc1nc2sc3c(c2c(=O)n1-c1ccc(OC)cc1)CCCC3 [Compound 7] | – | – | – | inactive | – |
| CCCSc1nc2sc3c(c2c(=O)n1-c1ccc(OC)cc1)CCCC3 [Compound 8] | – | – | – | inactive | – |
| CCCCSc1nc2sc3c(c2c(=O)n1-c1ccc(OC)cc1)CCCC3 [Compound 9] | – | – | – | inactive | – |
| CCCCCSc1nc2sc3c(c2c(=O)n1-c1ccc(OC)cc1)CCCC3 [Compound 10] | – | – | – | inactive | – |
| CCCCCCSc1nc2sc3c(c2c(=O)n1-c1ccc(OC)cc1)CCCC3 [Compound 11] | – | – | – | inactive | – |
| C=CCSc1nc2sc3c(c2c(=O)n1-c1ccc(OC)cc1)CCCC3 [Compound 12] | – | – | – | inactive | – |
| C#CCSc1nc2sc3c(c2c(=O)n1-c1ccc(OC)cc1)CCCC3 [Compound 13] | exhibited some activity | 80.7 | 6.08 | – | – |
| COc1ccc(-n2c(SCc3ccccc3)nc3sc4c(c3c2=O)CCCC4)cc1 [Compound 14] | completely destroyed the activity | – | – | inactive | – |
| COc1ccc(-n2c(SCc3ccc(C)cc3)nc3sc4c(c3c2=O)CCCC4)cc1 [Compound 15] | – | – | – | inactive | – |
| COc1ccc(CSc2nc3sc4c(c3c(=O)n2-c2ccc(OC)cc2)CCCC4)cc1 [Compound 16] | – | – | – | inactive | – |
| COc1ccc(-n2c(SCc3ccc([N+](=O)[O-])cc3)nc3sc4c(c3c2=O)CCCC4)cc1 [Compound 17] | – | – | – | inactive | – |
| COc1ccc(-n2c(SCC(C)=O)nc3sc4c(c3c2=O)CCCC4)cc1 [Compound 18] | – | – | – | inactive | – |
| COC(=O)CSc1nc2sc3c(c2c(=O)n1-c1ccc(OC)cc1)CCCC3 [Compound 19] | completely destroyed the activity | – | – | inactive | – |
| COc1ccc(-n2c(SCC(N)=O)nc3sc4c(c3c2=O)CCCC4)cc1 [Compound 20] | – | – | – | inactive | – |
| COc1ccc(-n2c(SC(C)=O)nc3sc4c(c3c2=O)CCCC4)cc1 [Compound 21] | – | – | – | inactive | – |
| CCCC(=O)Sc1nc2sc3c(c2c(=O)n1-c1ccc(OC)cc1)CCCC3 [Compound 22] | – | – | – | inactive | – |
| COc1ccc(-n2c(SC(=O)c3ccccc3)nc3sc4c(c3c2=O)CCCC4)cc1 [Compound 23] | – | – | – | inactive | – |
| COc1ccc(-n2c(SCCC#N)nc3sc4c(c3c2=O)CCCC4)cc1 [Compound 24] | retained some activity | 70 | 5.28 | – | – |
| COc1ccc(-n2c(SCCl)nc3sc4c(c3c2=O)CCCC4)cc1 [Compound 25] | exhibited some activity | 85 | 2.22 | – | – |

| SMILES | activity in the necroptosis assay, in words | Max Prot [%] | EC50 [1] [µM] | EC50 [2] | further results |
| --- | --- | --- | --- | --- | --- |
| COc1ccc(-n2c(SC[N+](=O)[O-])nc3sc4c(c3c2=O)CCCC4)cc1 [Compound 26] | completely destroyed the activity | – | – | inactive | – |
| COc1ccc(-n2c(SCC(=O)Nc3ccccc3C(F)(F)F)nc3sc4c(c3c2=O)CCCC4)cc1 [Compound 27] | – | – | – | inactive | – |
| COc1ccc(-n2c(SCC(C)O)nc3sc4c(c3c2=O)CCCC4)cc1 (centres unmarked) [Compound 28] | – | – | – | inactive | – |
| COc1ccc(-n2c(SCC(=O)O)nc3sc4c(c3c2=O)CCCC4)cc1 [Compound 29] | – | – | – | inactive | – |
| COc1ccc(-n2c([S+](C)[O-])nc3sc4c(c3c2=O)CCCC4)cc1 (centres unmarked) [Compound 30] | complete loss of activity | – | – | inactive | – |
| COc1ccc(-n2c(S(C)(=O)=O)nc3sc4c(c3c2=O)CCCC4)cc1 [Compound 31] | complete loss of activity | – | – | inactive | – |
| N#CCSc1nc2sc3c(c2c(=O)n1-c1ccccc1)CCCC3 [Compound 32] | inactive | – | – | inactive | – |
| COc1ccccc1-n1c(SCC#N)nc2sc3c(c2c1=O)CCCC3 [Compound 33] | – | 51.2 | 17.8 | – | – |
| COc1cccc(-n2c(SCC#N)nc3sc4c(c3c2=O)CCCC4)c1 [Compound 34] | – | 87.7 | 1.46 | – | – |
| CCOc1ccc(-n2c(SCC#N)nc3sc4c(c3c2=O)CCCC4)cc1 [Compound 35] | retained some activity; also recorded: showed significant higher activity compared to compound (154) | 83.8 | 0.55 | – | – |
| N#CCSc1nc2sc3c(c2c(=O)n1-c1ccc(OCc2ccccc2)cc1)CCCC3 [Compound 36] | – | – | – | inactive | – |
| Cc1ccccc1-n1c(SCC#N)nc2sc3c(c2c1=O)CCCC3 [Compound 37] | – | – | – | inactive | – |
| Cc1ccc(-n2c(SCC#N)nc3sc4c(c3c2=O)CCCC4)cc1 [Compound 38] | retained some activity | 48.6 | 1.8 | – | – |
| N#CCSc1nc2sc3c(c2c(=O)n1-c1ccc(F)cc1)CCCC3 [Compound 39] | retained significant activity; also recorded: showed substantial activity; also recorded: decreased activity | 85.1 | 0.24 | – | – |
| N#CCSc1nc2sc3c(c2c(=O)n1-c1cccc(Cl)c1)CCCC3 [Compound 40] | – | 66.9 | 5.1 | – | – |
| N#CCSc1nc2sc3c(c2c(=O)n1-c1ccc(Cl)cc1)CCCC3 [Compound 41] | activity significantly decreased | 55.0 | 8.5 | – | – |
| N#CCSc1nc2sc3c(c2c(=O)n1-c1ccc(Br)cc1)CCCC3 [Compound 42] | activity significantly decreased | – | – | inactive | – |
| Cc1ccc(-n2c(SCC#N)nc3sc4c(c3c2=O)CCCC4)cc1C [Compound 43] | – | 45.0 | 16.7 | – | – |
| N#CCSc1nc2sc3c(c2c(=O)n1-c1ccc(Cl)c(Cl)c1)CCCC3 [Compound 44] | – | 39.0 | 5.7 | – | – |
| N#CCSc1nc2sc3c(c2c(=O)n1-c1ccc(F)c(F)c1)CCCC3 [Compound 45] | – | – | – | inactive | – |
| COc1ccc(-n2c(SCC#N)nc3sc4c(c3c2=O)CCCC4)c(OC)c1 [Compound 46] | eliminated activity | – | – | inactive | – |

| SMILES | activity in the necroptosis assay, in words | Max Prot [%] | EC50 [1] [µM] | EC50 [2] | further results |
| --- | --- | --- | --- | --- | --- |
| COc1ccc(-n2c(SCC#N)nc3sc4c(c3c2=O)CCCC4)cc1OC [Compound 47] | – | 57.0 | 5.7 | – | – |
| N#CCCSc1nc2sc3c(c2c(=O)n1-c1ccc2c(c1)OCO2)CCCC3 [Compound 48, 3-(3′,4′)-methylene-dioxyphenyl-5,6-tetramethylenothieno[2,3-d]pyrimidin-4-one-2-mercaptoethylcyanide] | showed good activity; also recorded: showed substantial activity; also recorded: showed significant activity | 100 | 0.89 | – | – |
| CSc1ccc(-n2c(SCC#N)nc3sc4c(c3c2=O)CCCC4)cc1 [Compound 49] | – | 70.0 | 2.33 | – | – |
| Cc1cc(Cl)ccc1-n1c(SCC#N)nc2sc3c(c2c1=O)CCCC3 [Compound 50] | – | – | – | inactive | – |
| N#CCSc1nc2sc3c(c2c(=O)n1-c1ccc(OC(F)(F)F)cc1)CCCC3 [Compound 51] | loss of activity | – | – | inactive | – |
| CSc1nc2sc3c(c2c(=O)n1-c1ccc(OCc2ccccc2)cc1)CCCC3 [Compound 52] | – | – | – | inactive | – |
| CSc1nc2sc3c(c2c(=O)n1-c1ccc(F)cc1)CCCC3 [Compound 53] | showed some activity | 61.2 | 1.57 | – | – |
| CSc1nc2sc3c(c2c(=O)n1-c1ccc(Br)cc1)CCCC3 [Compound 54] | – | – | – | inactive | – |
| CSc1nc2sc3c(c2c(=O)n1-c1ccc(C)c(C)c1)CCCC3 [Compound 55] | – | 38.0 | 16.7 | – | – |
| CSc1nc2sc3c(c2c(=O)n1-c1ccc(Cl)c(Cl)c1)CCCC3 [Compound 56] | – | – | – | inactive | – |
| COc1ccc(-n2c(SC)nc3sc4c(c3c2=O)CCCC4)c(OC)c1 [Compound 57] | – | – | – | inactive | – |
| COc1ccc(-n2c(SC)nc3sc4c(c3c2=O)CCCC4)cc1OC [Compound 58] | showed some activity | 54.5 | 16.7 | – | – |
| CSc1nc2sc3c(c2c(=O)n1-c1ccc2c(c1)OCO2)CCCC3 [Compound 59] | – | – | – | inactive | – |
| CSc1cccc(-n2c(SC)nc3sc4c(c3c2=O)CCCC4)c1 [Compound 60] | – | – | – | inactive | – |
| CSc1nc2sc3c(c2c(=O)n1-c1ccc(Cl)cc1C)CCCC3 [Compound 61] | – | – | – | inactive | – |
| CSc1nc2sc3c(c2c(=O)n1-c1ccc(OC(F)(F)F)cc1)CCCC3 [Compound 62] | – | – | – | inactive | – |
| COc1ccc(-n2c(SCC#N)nc3sc(C)cc3c2=O)cc1 [Compound 64] | – | – | – | inactive | – |
| CCc1cc2c(=O)n(-c3ccc(OC)cc3)c(SCC#N)nc2s1 [Compound 65] | – | – | – | inactive | – |
| COc1ccc(-n2c(SCC#N)nc3scc(C)c3c2=O)cc1 [Compound 66] | – | – | – | inactive | – |
| COc1ccc(-n2c(SCC#N)nc3sc(C)c(C)c3c2=O)cc1 [Compound 67] | a high degree of activity is retained; also recorded: showed substantial activity; also recorded: showed significant higher activity compared to compound (154) | 100 | 0.45 | – | – |
| CCc1sc2nc(SCC#N)n(-c3ccc(OC)cc3)c(=O)c2c1C [Compound 68] | – | 86.8 | 5.26 | – | – |
